SMILES strings stand for the structures.

Holding throughout (type): in vivo
For one data set, the system named is Oryza sativa. Nature of the data set: Crop compatibility post-emergence, greenhouse pot test. How it is done: (§1) Seeds of mono- and dicotyledonous weed plants and crop plants were laid out in sandy loam soil in plastic or wood-fiber pots, covered with soil and grown under controlled growth conditions in a greenhouse. 2 to 3 weeks after sowing, the trial plants were treated at the one-leaf stage. The compounds of the invention formulated in the form of wettable powders (WP) or as emulsion concentrates (EC) were then sprayed onto the green parts of the plant as an aqueous suspension or emulsion with addition of 0.5% additive at a water application rate equivalent to 600 L/ha. After the trial plants had stood for about 3 weeks in the greenhouse, under optimal growth conditions, the effect of the preparations was scored visually by comparison with untreated controls. For example, 100% efficacy=plants have died, 0% efficacy=like control plants.
(§2) Crop plant compatibilities were also scored correspondingly.
(§3) The effects observed are reported here on selected crop plants by comparison, with the untreated controls (values in %).

The next data set concerns Abutilon theophrasti. The data set can be described thus: Herbicidal action post-emergence, greenhouse pot test. As to conditions: application rate 20 g/ha. How it is done: as §1, with “plants. Tables A1 to A16 below show the efficacies of selected compounds of the general formula (I) according to tables I.1 to I.50 on various harmful plants and an application rate corresponding to 80 g/ha or lower that were obtained by the aforementioned trial method.” for “plants.”

The next data set concerns Pharbitis purpurea. Described as above. How it is done: as §1, with “plants. Tables A1 to A16 below show the efficacies of selected compounds of the general formula (I) according to tables I.1 to I.50 on various harmful plants and an application rate corresponding to 80 g/ha or lower that were obtained by the aforementioned trial method.” for “plants.”
The test system of the next data set is Echinochloa crus-galli. The description is as above. As to conditions: application rate 20 g/ha. How it is done: as §1, with “plants. Tables A1 to A16 below show the efficacies of selected compounds of the general formula (I) according to tables I.1 to I.50 on various harmful plants and an application rate corresponding to 80 g/ha or lower that were obtained by the aforementioned trial method.” for “plants.”

In the next data set the test system is Lolium rigidum. Described as above. As to conditions: application rate 20 g/ha. How it is done:
as §1, with “plants. Tables A1 to A16 below show the efficacies of selected compounds of the general formula (I) according to tables I.1 to I.50 on various harmful plants and an application rate corresponding to 80 g/ha or lower that were obtained by the aforementioned trial method.” for “plants.”

A further data set relates to Polygonum convolvulus. The description is as above. The following applies: application rate 20 g/ha. How it is done: as §1, with “plants. Tables A1 to A16 below show the efficacies of selected compounds of the general formula (I) according to tables I.1 to I.50 on various harmful plants and an application rate corresponding to 80 g/ha or lower that were obtained by the aforementioned trial method.” for “plants.”

The test system of the next data set is Setaria viridis. The data set is described as above. The following applies: application rate 20 g/ha. How it is done: as §1, with “plants. Tables A1 to A16 below show the efficacies of selected compounds of the general formula (I) according to tables I.1 to I.50 on various harmful plants and an application rate corresponding to 80 g/ha or lower that were obtained by the aforementioned trial method.” for “plants.”

A further data set concerns Alopecurus myosuroides. Described as above. As to conditions: application rate 20 g/ha, scored visually after about 3 weeks vs untreated controls. How it is done:
as §1, with “plants. Tables A1 to A16 below show the efficacies of selected compounds of the general formula (I) according to tables I.1 to I.50 on various harmful plants and an application rate corresponding to 80 g/ha or lower that were obtained by the aforementioned trial method.” for “plants.”

The subject of a further data set is Amaranthus retroflexus. Described as above. The following applies: application rate 20 g/ha. How it is done:
as §1, with “plants. Tables A1 to A16 below show the efficacies of selected compounds of the general formula (I) according to tables I.1 to I.50 on various harmful plants and an application rate corresponding to 80 g/ha or lower that were obtained by the aforementioned trial method.” for “plants.”

The subject of another data set is Stellaria media. The data set is described as above. The following applies: application rate 20 g/ha. How it is done: as §1, with “plants. Tables A1 to A16 below show the efficacies of selected compounds of the general formula (I) according to tables I.1 to I.50 on various harmful plants and an application rate corresponding to 80 g/ha or lower that were obtained by the aforementioned trial method.” for “plants.”

The next data set has as its system Veronica persica. The data set is described as above. The following applies: application rate 20 g/ha. How it is done: as §1, with “plants. Tables A1 to A16 below show the efficacies of selected compounds of the general formula (I) according to tables I.1 to I.50 on various harmful plants and an application rate corresponding to 80 g/ha or lower that were obtained by the aforementioned trial method.” for “plants.”

The subject of the next data set is Matricaria inodora. Described as above. As to conditions: application rate 20 g/ha. How it is done:
as §1, with “plants. Tables A1 to A16 below show the efficacies of selected compounds of the general formula (I) according to tables I.1 to I.50 on various harmful plants and an application rate corresponding to 80 g/ha or lower that were obtained by the aforementioned trial method.” for “plants.”

A further data set has as its system Viola tricolor. Described as above. As to conditions: application rate 20 g/ha. How it is done: as §1, with “plants. Tables A1 to A16 below show the efficacies of selected compounds of the general formula (I) according to tables I.1 to I.50 on various harmful plants and an application rate corresponding to 80 g/ha or lower that were obtained by the aforementioned trial method.” for “plants.”

For the next data set, the system named is Digitaria sanguinalis. Described as above. The following applies: application rate 20 g/ha.
The test system of the next data set is Triticum aestivum. The data set can be described thus: Crop compatibility post-emergence, greenhouse pot test. How it is done: as §1, §2, §3

`CCNC(=O)CCOC(=O)C(C)Sc1cc(-n2c(=O)cc(C(F)(F)F)n(C)c2=O)c(F)cc1Cl` (centres unmarked) [I.1-153]: the “Oryza sativa (Efficacy in %)” value in the data set with Oryza sativa (application rate 5 g/ha) was determined as 10%. Further, the “Abutilon theophrasti (Efficacy in %)” value in the data set with Abutilon theophrasti is 100%. Further, in the data set with Pharbitis purpurea (application rate 20 g/ha), the “Pharbitis purpurea (Efficacy in %)” value amounted to 100%. The “Echinochloa crus-galli (Efficacy in %)” value in the data set with Echinochloa crus-galli was found to be 100%. Besides, the “Lolium rigidum (Efficacy in %)” value with Lolium rigidum is 80%. Moreover, the “Polygonum convolvulus (Efficacy in %)” value with Polygonum convolvulus was 100%. Besides, the “Setaria viridis (Efficacy in %)” value with Setaria viridis was determined as 100%. For the same compound, the “Alopecurus myosuroides (Efficacy in %)” value in the data set with Alopecurus myosuroides turned out to be 90%. In addition, in the data set with Amaranthus retroflexus, the “Amaranthus retroflexus (Efficacy in %)” value is on record as 100%. Further, the “Stellaria media (Efficacy in %)” value in the data set with Stellaria media is 100%. Moreover, the “Veronica persica (Efficacy in %)” value in the data set on Veronica persica turned out to be 100%. Besides, in the data set with Matricaria inodora, the “Matricaria inodora (Efficacy in %)” value is recorded as 100%. For the same compound, the “Viola tricolor (Efficacy in %)” value in the data set on Viola tricolor came out at 100%. For the same compound, in the data set on Digitaria sanguinalis, the “Digitaria sanguinalis (Efficacy in %)” value was found to be 100%.

For `CCOC(=O)COC(=O)C(C)Sc1cc(-n2c(=O)cc(C(F)(F)F)n(C)c2=O)c(F)cc1Cl` (centres unmarked) [I.1-43], the “Triticum aestivum (Efficacy in %)” value with Triticum aestivum (application rate 5 g/ha) turned out to be 10%. The “Abutilon theophrasti (Efficacy in %)” value in the data set with Abutilon theophrasti amounted to 100%. The “Pharbitis purpurea (Efficacy in %)” value in the data set with Pharbitis purpurea (application rate 20 g/ha) came to 100%. Further, the “Echinochloa crus-galli (Efficacy in %)” value with Echinochloa crus-galli is given as 100%. In the data set with Polygonum convolvulus, the “Polygonum convolvulus (Efficacy in %)” value is 100%. In the data set with Setaria viridis, the “Setaria viridis (Efficacy in %)” value was 100%. The “Alopecurus myosuroides (Efficacy in %)” value with Alopecurus myosuroides is reported as 80%. For the same compound, the “Amaranthus retroflexus (Efficacy in %)” value in the data set with Amaranthus retroflexus was determined as 100%. In addition, in the data set with Stellaria media, the “Stellaria media (Efficacy in %)” value came out at 80%. Moreover, the “Veronica persica (Efficacy in %)” value with Veronica persica turned out to be 100%. Further, the “Matricaria inodora (Efficacy in %)” value in the data set on Matricaria inodora amounted to 100%. Also, the “Viola tricolor (Efficacy in %)” value in the data set on Viola tricolor is 100%. Further, the “Digitaria sanguinalis (Efficacy in %)” value with Digitaria sanguinalis turned out to be 100%.

With `CCN(C)C(=O)CCOC(=O)C(C)Sc1cc(-n2c(=O)cc(C(F)(F)F)n(C)c2=O)c(F)cc1Cl` (centres unmarked) [I.1-233], the “Oryza sativa (Efficacy in %)” value with Oryza sativa (application rate 20 g/ha) is reported as 20%. Besides, the “Abutilon theophrasti (Efficacy in %)” value in the data set on Abutilon theophrasti is reported as 100%. In addition, in the data set with Pharbitis purpurea (application rate 20 g/ha), the “Pharbitis purpurea (Efficacy in %)” value is 100%. Besides, in the data set with Echinochloa crus-galli, the “Echinochloa crus-galli (Efficacy in %)” value is 100%. In addition, the “Lolium rigidum (Efficacy in %)” value in the data set on Lolium rigidum was determined as 90%. Also, in the data set on Polygonum convolvulus, the “Polygonum convolvulus (Efficacy in %)” value is 100%. Also, the “Setaria viridis (Efficacy in %)” value in the data set on Setaria viridis is recorded as 100%. Moreover, the “Alopecurus myosuroides (Efficacy in %)” value with Alopecurus myosuroides is recorded as 90%. Moreover, the “Amaranthus retroflexus (Efficacy in %)” value in the data set with Amaranthus retroflexus is reported as 100%. For the same compound, in the data set with Stellaria media, the “Stellaria media (Efficacy in %)” value is 100%. Further, the “Veronica persica (Efficacy in %)” value in the data set on Veronica persica came out at 100%. In addition, in the data set on Matricaria inodora, the “Matricaria inodora (Efficacy in %)” value is reported as 100%. Besides, the “Viola tricolor (Efficacy in %)” value with Viola tricolor is on record as 100%. In addition, in the data set with Digitaria sanguinalis, the “Digitaria sanguinalis (Efficacy in %)” value amounted to 100%.

Turning to `CCCCC(Sc1cc(-n2c(=O)cc(C(F)(F)F)n(C)c2=O)c(F)cc1Cl)C(=O)OCCC(=O)OCC` (centres unmarked) [I.47-3], the “Triticum aestivum (Efficacy in %)” value in the data set with Triticum aestivum (application rate 20 g/ha) was 20%. In addition, the “Oryza sativa (Efficacy in %)” value in the data set on Oryza sativa (application rate 20 g/ha) is on record as 20%. Moreover, the “Abutilon theophrasti (Efficacy in %)” value in the data set with Abutilon theophrasti is recorded as 100%. Besides, the “Pharbitis purpurea (Efficacy in %)” value in the data set with Pharbitis purpurea (application rate 20 g/ha) was determined as 100%. The “Echinochloa crus-galli (Efficacy in %)” value in the data set with Echinochloa crus-galli amounted to 80%. In addition, in the data set on Polygonum convolvulus, the “Polygonum convolvulus (Efficacy in %)” value was 100%. In addition, the “Setaria viridis (Efficacy in %)” value in the data set on Setaria viridis is given as 100%. Further, the “Amaranthus retroflexus (Efficacy in %)” value in the data set with Amaranthus retroflexus is recorded as 100%. For the same compound, in the data set with Veronica persica, the “Veronica persica (Efficacy in %)” value is 100%. Further, the “Matricaria inodora (Efficacy in %)” value with Matricaria inodora is given as 100%. Also, the “Viola tricolor (Efficacy in %)” value in the data set on Viola tricolor came to 100%. In addition, the “Digitaria sanguinalis (Efficacy in %)” value with Digitaria sanguinalis came to 100%.

Regarding `CCOC(=O)CCOC(=O)C(CC)Sc1cc(-n2c(=O)c(C)c(C(F)(F)F)n(C)c2=O)c(F)cc1Cl` (centres unmarked) [I.12-3], the “Triticum aestivum (Efficacy in %)” value with Triticum aestivum (application rate 20 g/ha) is on record as 20%. Further, the “Oryza sativa (Efficacy in %)” value with Oryza sativa (application rate 20 g/ha) is listed as 0%. Also, the “Abutilon theophrasti (Efficacy in %)” value with Abutilon theophrasti was 100%. Moreover, the “Pharbitis purpurea (Efficacy in %)” value in the data set with Pharbitis purpurea (application rate 5 g/ha) was 100%. In the data set with Echinochloa crus-galli, the “Echinochloa crus-galli (Efficacy in %)” value is reported as 100%. The “Polygonum convolvulus (Efficacy in %)” value with Polygonum convolvulus came to 100%. In addition, in the data set with Setaria viridis, the “Setaria viridis (Efficacy in %)” value was 100%. Moreover, the “Amaranthus retroflexus (Efficacy in %)” value with Amaranthus retroflexus was determined as 100%. Moreover, the “Stellaria media (Efficacy in %)” value in the data set on Stellaria media is 100%. Besides, the “Veronica persica (Efficacy in %)” value in the data set with Veronica persica is 100%. In addition, in the data set on Viola tricolor, the “Viola tricolor (Efficacy in %)” value stood at 100%. Moreover, the “Digitaria sanguinalis (Efficacy in %)” value with Digitaria sanguinalis was determined as 100%.
